# Test results reported in paper PMC5577515, “Peptide‐Directed Binding for the Discovery of Modulators of α‐Helix‐Mediated Protein–Protein Interactions: Proof‐of‐Concept Studies with the Apoptosis Regulator Mcl‐1” (Angewandte Chemie (International Ed. in English), 2017).
# Read-outs that look alike come from different tables or passages of the source.
# Assays:
# [1] = target: T1, Mcl-1 (UniProt P97287+Q07820); experiment: Competitive fluorescence anisotropy (FA) assay, FITC-NoxaB displacement from Mcl-1; format: binding; details: Table 2; inhibition of binding of 5 nM FITC-NoxaB to 10 nM Mcl-1; PBS, 0.05% Tween-20, pH 7.4; non-linear regression of at least three experiments; errors = transformed greater extreme of standard error; SEM; read-out: FA IC50
# T1 construct: amino acid residues 152-189 of mouse Mcl-1 fused with amino acid residues 209-327 of; 8 x His (N); TEV site (N); made in house; host or cells: E. coli BL21(DE3)pLysS
# Protocol: Fmoc, 9-fluorenylmethylcarbony. IC50 determined by non -linear regression of at least three experiments.
# 4. Fluorescence Anisotropy Binding Assay
# Fluorescence anisotropy was carried out on a BMG Labtech clariostar microplate reader with a fluorescence anisotropy optic measuring at 482/530 nm. Low -binding, Corning 96 -well black plates were used and all reagents used in the assay were biological grade and purchased from Sigma Aldrich and Novabioche m. All solutions were made using MilliQ water .
# Anisotropy values were automatically calculated using the following formula […]
# Where r = anisotropy, l a = parallel emission light, lb = perpendicular emission light and I = total […]
# KD was determined using GraphPad Prism Version 6.0 software, using the One Site – Total binding […]
# Where Bmax is the maximum specific binding, KD is the equilibrium binding constant, and NS is the slope of nonspecific binding. […]
# IC50 was determined using GraphPad Prism Version 6.0 software, using a four-parameter logistic model, according to precedent from Ottmann and co-workers.[5] Errors are the transformed greater extreme of the standard error. […]
# For binding each well contained 10 µL of Mcl -1 protein in 10-fold dilutions (0.37 pM to 3.7 µM) […]
# protein were dissolved in PBS: 0.05% Tween -20 buffer at pH 7.4. Reagents were incubated for 30 min at room temperature prior to reading. Bubbles were removed and 8 data points were generated.
# Figure S 1: Fluorescence Anisotropy direct titration.
# To confirm reproducibility of
# (µ) and standard deviations (σ) were inputted into the following equation:
# Inhibition screens were carried out using 10 nM Mcl -1, 5 nM fluorescently-tagged peptide and 100 µM of inhibitor. Compounds were dissolved in DMSO. […]
# control (DMSO) were used to define the mini mum and maximum values and ensure the assay was […]
# (1 picture or pasted object on this page, not shown here) […]
# Bubbles were removed and 8 data points were generated. […]
# [2] = tested on: MiaPaCa-2 cells; experiment: MTS cytotoxicity assay, MiaPaCa-2; format: cell-based; details: 72 h, 37 °C, triplicate, at least three experiments, errors = transformed greater extreme of standard error, SEM, read-out: MiaPaCa-2 cell growth inhibition IC50
# Protocol: (§1) CUSTOM_[…] ("<1>=[N+]",("charge", 0, 2)) […]
# (§2) CUSTOM_[…] ("<1>=[N]=[N]",("bond",1,(2,3))) […]
# (§3) CUSTOM_[…] ("<1>([C]=[C])=[N][N]",("bond",1,(3,5))) […]
# (§4) The MiaPaCa-2 cell line, BxPC-3 cell line and AsPC-1 cell line were purchased from the European Collection of Cell Cultures (ECACC, Porton Down, UK). MiaPaCa-2 cells were cultured in DMEM media with 2 mM L-glutamine, 100 U/mL penicillin, 100 µg/mL streptomycin and 10% FCS.
# (§5) BxPC-3 cells and AsPC-1 cells were cultured in RPMI-1640 media containing 2 mM L-glutamine, 100 U/mL penicillin, 100 µg/mL streptomycin and 10% FCS. Cells were sub-cultured twice weekly and maintained at 37 °C and 5% CO2.
# (§6) The anti-proliferative activity of the compounds studied was assessed by MTS assay (Promega) following the manufacturer’s instructions. Cells were seeded at 5 x 103 / 100 μL in a 96-well plate and left untreated or treated with DMSO (vehicle control), or compounds 1-4 (100 μM – […], in well concentration) in triplicate for 72 h at 37 °C with 5% CO2. Following this, MTS assay reagent was added to each well and the plates incubated for 4 h at 37 °C with 5% CO2. The absorbance was measured at 492 nm using the BMG Labtech POLARstarOPTIMA microplate reader. […]
# [3] = tested on: BxPC-3 cells; experiment: MTS cytotoxicity assay, BxPC-3; format: cell-based; details: 72 h, 37 °C, triplicate, at least three experiments, errors = transformed greater extreme of standard error, SEM, read-out: BxPC-3 cell growth inhibition IC50
# Protocol: as §1, §2, §3, §4, §5, §6
# [4] = tested on: AsPC-1 cells; experiment: MTS cytotoxicity assay, AsPC-1; format: cell-based; details: for IC50: 72 h, 37 °C, triplicate, at least three experiments, errors = transformed greater extreme of standard error, read-out: AsPC-1 cell growth inhibition IC50; for activity against AsPC-1 cells: at the concentrations evaluated (up to 100 μM), result in words
# Protocol: as §1, §2, §3, §4, §5, §6
# [5] = tested on: BxPC-3 cells; experiment: Annexin-V-FLUOS staining, phosphatidylserine externalization; format: cell-based; details: 4 h, fluorescence microscopy
# Protocol: Figure 2 Representative small molecules induce hallmarks of apoptosis. A) Increase of caspase‐3 activation in BxPC‐3 cells 4 h after treatment. B) Externalization of phosphatidylserine, a hallmark of apoptosis, was evaluated by exposing BxPC‐3 cells to compounds 18 (25 μM), 20 (5 μM), 21 (5 μM), and 23 (25 μM) for 4 h followed by annexin‐V‐FLUOS. Images were taken at 10× magnification with a GFP filter (top) and white light (bottom). […]
# as §1, §2, §3, §4
# BxPC-3 cells and AsPC-1 cells were cultured in RPMI-1640 media containing 2 mM L-glutamine, 100 U/mL penicillin, 100 µg/mL streptomycin and 10% FCS. Cells were sub-cultured twice weekly and maintained at 37 °C and 5% CO2. […]
# An Annexin-V-FLUOS/Propidium iodide staining kit (Roche Applied Science) was used to detect phosphatidylserine externalization in pancreatic cancer cell line BxPC-3. Cells, seeded in clear 96- […]
# and treated with staining kit according to the manufacturer’s protocol. Fluorescence microscopy […]
# was used to examine cells and pictures taken with an inverted Leica DMII fluorescence microscope […]
# Caspase 3 activation assay […]
# [6] = target: T2, Bcl-2 (Homo sapiens, UniProt P10415, DEL35-91/INS34DVEENRTEAPEGTESE); experiment: Competitive FA assay, FITC-Bid displacement from Bcl-2; format: binding; details: 5 nM FITC-Bid, 30 nM Bcl-2; up to 100 µM compound
# T2 construct: The Bcl-2 protein used in our study has the same construction as that used in the work of Fesik; purchased Dundee Cell Product Ltd
# Protocol: For binding each well contained 10 µL of Bcl -2 protein in 10-fold dilutions (0.90 pM to 9.0 µM) […]
# (§7) were dissolved in PBS: 0.05% Tween -20 buffer at pH 7.4. Reagents were incubated for 30 min at room temperature prior to reading. Bubbles were removed and 8 data points were generated.
# Figure S 3: Fluorescence Anisotropy direct titration. […] Normalized […]
# (§8) (1 picture or pasted object on this page, not shown here)
# [7] = target: T3, Bcl-xL (Homo sapiens, UniProt Q07817, DEL45-84); experiment: Competitive FA assay, FITC-Bid displacement from Bcl-xL; format: binding; details: 5 nM FITC-Bid, up to 100 µM compound
# T3 construct: The Bcl-xL protein used in our study is a truncated construction of the full-length protein, with; purchased Dundee Cell Product Ltd
# Protocol: as §7, §8
# Inhibition screens were carried out using […]
# T1 sequence (P97287 152-189 limits assumed): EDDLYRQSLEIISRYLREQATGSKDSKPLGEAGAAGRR
# T1 sequence (Q07820 209-327 limits assumed): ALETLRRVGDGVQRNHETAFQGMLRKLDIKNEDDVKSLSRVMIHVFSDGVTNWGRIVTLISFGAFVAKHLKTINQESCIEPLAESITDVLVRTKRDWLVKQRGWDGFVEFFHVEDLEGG
# T2 sequence (P10415 with tags, fused parts or gaps INS34DVEEN/V35R/G36T/A37E/P40E/DEL42-87/P88T/V89E/P90S/P91E): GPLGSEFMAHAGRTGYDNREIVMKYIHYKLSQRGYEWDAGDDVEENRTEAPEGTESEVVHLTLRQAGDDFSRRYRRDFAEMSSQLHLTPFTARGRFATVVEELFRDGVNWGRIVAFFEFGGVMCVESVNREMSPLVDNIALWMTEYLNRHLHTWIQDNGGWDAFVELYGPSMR
# T3 sequence (Q07817 with tags, fused parts or gaps DEL45-84): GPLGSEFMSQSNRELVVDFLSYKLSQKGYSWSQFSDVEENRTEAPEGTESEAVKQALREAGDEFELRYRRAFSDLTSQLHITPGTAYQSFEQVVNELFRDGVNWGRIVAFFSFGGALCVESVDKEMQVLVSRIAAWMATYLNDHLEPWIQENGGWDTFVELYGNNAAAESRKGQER
smiles,measurement,setting,value
COC(=O)C(Cc1cn(Cc2ccc(C#N)cc2)nn1)NC(=O)OCC1c2ccccc2-c2ccccc21 (centres unmarked) [Compound 20],IC50,[1],0.249 ± 0.051 µM
same,IC50,[2],6.57 ± 3.92 µM
same,IC50,[3],5.98 ± 1.14 µM
same,IC50,[4]; SEM,2.04 ± 0.62 µM
same,externalization of phosphatidylserine (annexin-V-FLUOS binding),[5]; 5 μM,induce the externalization of phosphatidylserine
COC(=O)C(Cc1cn(Cc2ccc(Cl)cc2)nn1)NC(=O)OCC1c2ccccc2-c2ccccc21 (centres unmarked) [Compound 21],IC50,[1],1.26 ± 0.142 µM
same,binding to Bcl-2 in FA assay,[6],no appreciable binding
same,binding to Bcl-xL in FA assay,[7],no appreciable binding
same,IC50,[2],1.85 ± 3.17 µM
same,IC50,[3],2.81 ± 0.4 µM
same,IC50,[4],> 100 µM
same,activity against AsPC-1 cells,[4],ineffective
same,externalization of phosphatidylserine (annexin-V-FLUOS binding),[5]; 5 μM,induce the externalization of phosphatidylserine
"COC(=O)[C@H](Cc1cn(Cc2ccccc2F)nn1)NC(=O)OCC1c2ccccc2-c2ccccc21 [Compound 23, methyl (S)-2-((((9H-fluoren-9-yl)methoxy)carbonyl)amino)-3-(1-(2-fluorobenzyl)-1H-1,2,3-triazol-4-yl)propanoate]",IC50,[1],1.7 ± 0.23 µM
same,IC50,[2],19.5 ± 1.35 µM
same,IC50,[3],25.2 ± 2.66 µM
same,IC50,[4]; SEM,10.5 ± 1.53 µM
same,externalization of phosphatidylserine (annexin-V-FLUOS binding),[5]; 25 μM,induce the externalization of phosphatidylserine
COC(=O)C(Cc1cn(C23CC4CC(CC(C4)C2)C3)nn1)NC(=O)OCC1c2ccccc2-c2ccccc21 (centres unmarked) [Compound 18],IC50,[1],0.186 ± 0.02 µM
same,binding to Bcl-2 in FA assay,[6],no appreciable binding
same,binding to Bcl-xL in FA assay,[7],no appreciable binding
same,IC50,[2],15.2 ± 0.75 µM
same,IC50,[3],29.8 ± 4.15 µM
same,IC50,[4],> 100 µM
same,activity against AsPC-1 cells,[4],ineffective
same,externalization of phosphatidylserine (annexin-V-FLUOS binding),[5]; 25 μM,induce the externalization of phosphatidylserine
